Residue numbers refer to the chain shown, from its start.
Legend:
Test in all cases: isothermal titration calorimetry
Assay type in all cases: binding
[1] = molecular target: T1, 3β-OH-Δ^5-6-cholesterol-5β-reductase (5βChR); putative cholesterol dehydrogenase (Limosilactobacillus fermentum, UniProt A0ABF7R4H0, M189A); conditions: NADP+ titration; C-terminal substrate-pocket mutant
T1 sequence (A0ABF7R4H0 1-249 M189A): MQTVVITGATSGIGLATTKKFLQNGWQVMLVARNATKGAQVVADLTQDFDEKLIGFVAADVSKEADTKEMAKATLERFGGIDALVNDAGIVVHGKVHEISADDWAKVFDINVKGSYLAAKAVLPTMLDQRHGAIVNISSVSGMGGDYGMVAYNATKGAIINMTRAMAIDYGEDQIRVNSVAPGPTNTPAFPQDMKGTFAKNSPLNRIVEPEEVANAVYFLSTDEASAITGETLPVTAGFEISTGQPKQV

[2] = molecular target: T2, 3β-OH-Δ^5-6-cholesterol-5β-reductase (5βChR); putative cholesterol dehydrogenase (Limosilactobacillus fermentum, UniProt A0ABF7R4H0, F190A); conditions: NADP+ titration; C-terminal substrate-pocket mutant
T2 sequence (A0ABF7R4H0 1-249 F190A): T1 sequence (A0ABF7R4H0 1-249 M189A) with A189M, F190A

[3] = molecular target: T3, 3β-OH-Δ^5-6-cholesterol-5β-reductase (5βChR); putative cholesterol dehydrogenase (Limosilactobacillus fermentum, UniProt A0ABF7R4H0, T187A); conditions: NADP+ titration; C-terminal substrate-pocket mutant
T3 sequence (A0ABF7R4H0 1-249 T187A): T1 sequence (A0ABF7R4H0 1-249 M189A) with T187A, A189M

[4] = molecular target: T4, 3β-OH-Δ^5-6-cholesterol-5β-reductase (5βChR); putative cholesterol dehydrogenase (Limosilactobacillus fermentum, UniProt A0ABF7R4H0, S139A); conditions: catalytic tetrad mutant
T4 sequence (A0ABF7R4H0 1-249 S139A): T1 sequence (A0ABF7R4H0 1-249 M189A) with S139A, A189M

[5] = molecular target: T5, 3β-OH-Δ^5-6-cholesterol-5β-reductase (5βChR); putative cholesterol dehydrogenase (Limosilactobacillus fermentum, UniProt A0ABF7R4H0, Y152A); conditions: catalytic tetrad mutant
T5 sequence (A0ABF7R4H0 1-249 Y152A): T1 sequence (A0ABF7R4H0 1-249 M189A) with Y152A, A189M

SMILES	Kd [1] [µM]	Kd [2] [µM]	Kd [3] [µM]	Kd [4] [µM]	Kd [5] [µM]
NC(=O)c1ccc[n+]([C@@H]2O[C@H](COP(=O)(O)OP(=O)(O)OC[C@H]3O[C@@H](n4cnc5c(N)ncnc54)[C@H](OP(=O)(O)O)[C@@H]3O)[C@@H](O)[C@H]2O)c1 [NADP^+]	7.49	5.2	8.77	–	–
CC(C)CCC[C@@H](C)[C@H]1CC[C@H]2[C@@H]3CC=C4C[C@@H](O)CC[C@]4(C)[C@H]3CC[C@]12C [cholesterol]	–	–	–	24.8	4.44
